Values after ≈ are worked out from the molar mass of the structure shown. Like-named read-outs stand apart in the source and are kept apart here.
Experiments:
[1] = system: ACBA multi-drug resistant strains; assay: MIC against multi-drug resistant strains (Table 5); format: cell-based, Acinetobacter baumannii; settings: Acinetobacter baumannii
Method: (§1) MIC experiments of the antimicrobial agents were determined by a modified broth microdilution method in accordance with the Clinical and Laboratory Standards Institute (CLSI) guidelines using 96 well culture plates. In brief, serial dilutions of all plates were prepared at different concentrations (μg). The inoculum suspension was prepared by adding isolated colonies from a 18-20 hours on TSA plate into phosphate buffer (0.31 mM, pH 7.2) or in water for injection (BBraun) and adjusting the suspension to a turbidity equivalent to 0.5 McFarland Standard. Each well contained a final bacterial concentration of approximately 5×10^5 colony forming units (CFU)/mL. The plate was covered and incubated at 35° C. for 24 hours. […] For the microdilution plates, turbidity in wells can be measured at OD600 using TECAN infinite M200Pro. MIC was determined as […] concentration that gives a 99 percent inhibition.

[2] = system: KLPN multi-drug resistant strains; assay: MIC against multi-drug resistant strains (Table 5); format: cell-based, Klebsiella pneumonia; settings: Klebsiella pneumoniae, alone, read-out: MIC
Method: as §1

[3] = system: ENT CLOACAE multi-drug resistant strains; assay: MIC against multi-drug resistant strains (Table 5); format: cell-based, E. cloacae; settings: Enterobacter cloacae, alone, read-out: MIC
Method: as §1

various pathogens = assay: organism not typed; format: cell-based
Method: The MICs of the individual drugs and LC compound in combinations were determined using the broth microdilution technique as recommended by the CLSI whereby the two anti-microbial agents were added in an equal amount. (e.g.: 50 μL of Colistin: 50 μL of LC compounds). Diluted media containing compounds and antibiotics will be serially diluted 2-fold, and LC compounds and antibiotics alone or in combination will be assayed at fixed synergy concentration. In all cases, the lowest concentration at which no visible growth occurred was be recorded to be the MIC value of individual and combined antibacterial agents. The results were obtained after 24 hours of incubation.
Using the combination of LC100 and colistin, the activity of a broad range of strains was further tested (Table 7).

[4] = system: MCR positive E. coli Clinical isolate 6083655967; format: in vivo; settings: neutropenic mice, i.p. 1 hour after infection, 6 hours after treatment; colistin 10 mg/kg, LC100 50 mg/kg, meropenem 100 mg/kg, combination 50 + 10 mg/kg
Method: FIG. 21 refers to graphs showing the efficacy testing of combination of LC100 and Colistin in neutropenic mouse thigh infection model infected with MCR positive E. coli Clinical isolate 6083655967. Starting inoculum was 1.87×10^6, N=3. “Combination” refers to Colistin 10 mg/kg+LC100 50 mg/kg. Each treatment was done intraperitoneally 1 hour after infection. 6 hours after treatment, mouse thigh tissues were homogenized for viable CFU.
The combination of colistin and antimicrobial peptide (LC100) was tested against E. coli clinical isolate MCR-positive strain 6083655967 in a neutropenic mouse thigh infection model. C57BL/6 mice were rendered neutropenic by cyclophosphamide, dosed at 150 and 100 mg kg-1 delivered on days −4 and −1 prior to infection. Bacteria were suspended in sterile saline and adjusted to a concentration of ˜1.876×10^6 CFU per infection site (100 micro-liters) and injected intramuscularly into the right thigh of five mice per treatment group. At 1 h post infection, mice received colistin ([…], i.p. n=5), LC100 (50 mg kg-1, i.p. n=5), untreated (n=5), or the combination (n=5). Mice were euthanized 6 h after infection; thigh tissue was aseptically collected, homogenized, serially diluted in PBS and plated onto solid TSA supplemented plates. Plates were incubated overnight at 37° C. and colonies were quantified to determine bacterial load.
To evaluate the in vivo efficacy of the combination of LC100 and colistin, a neutropenic mouse thigh infection model was used. 30 mice were classed into 5 groups: control, colistin at 10 mg/kg, LC100 at 50 mg/kg, meropenem at 100 mg/kg and combination of 50 mg/kg of LC100 and 10 mg/kg of colistin. Each treatment was administered intraperitoneally 1 hour after infection. The starting inoculum was 1.87×10^6, and 6 hours after treatment, mouse thigh tissues were homogenized for viable CFU. […] As neutropenic mice were used in the study, the 1.2 log reduction in bacterial burden is due to the combination of LC100 and colistin rather than the immune system of the mouse.

[5] = system: EC strains (CRE strains, colistin sensitive); assay: MIC of polymyxin B or colistin alone (Table 4); format: cell-based, E. coli; parameters: unit: μg/mL
Method: as §1

[6] = system: PAE strains (CRE strains, colistin sensitive); assay: MIC of polymyxin B or colistin alone (Table 4); format: cell-based, P. aeruginosa; parameters: unit: μg/mL
Method: as §1

[7] = ATCC19606, strain ACBA ATCC 19606, alone, read-out: MIC
[8] = strain ACBA 1012, alone, read-out: MIC
[9] = strain ACBA 43357, alone, read-out: MIC
[10] = Escherichia coli, 6083655967 [MCR 1+, E. Coli]
[11] = Escherichia coli, 6093560257 [MCR 1+, E. Coli, NDM-1]
[12] = Escherichia coli, 6123520276 [MCR 1+, E. Coli]
[13] = Escherichia coli, 7023436560 [MCR 1+, E. Coli]
[14] = Escherichia coli, 7023444207 [MCR 1+, E. Coli]
[15] = Escherichia coli, 7023446108 [MCR 1−, E. Coli]
[16] = Escherichia coli, 7033607097 [MCR 1−, E. Coli]
[17] = Escherichia coli, 7103531927 [MCR 1+, E. Coli, KPC+]
[18] = Escherichia coli, 7113636863 [MCR 1+, E. Coli, NDM-1]

Molecule	MIC [1, 7] [µg/mL]	MIC [1, 8] [µg/mL]	MIC [1, 9] [µg/mL]	MIC ([2]; strain KLPN 8852) [µg/mL]	MIC ([2]; strain KLPN 15588) [µg/mL]	MIC ([2]; strain KLPN 24076) [µg/mL]	MIC ([2]; strain KLPN 27025) [µg/mL]	MIC ([3]; strain ENT CLOACAE 6780) [µg/mL]	MIC ([3]; strain ENT CLOACAE 21489) [µg/mL]	MIC ([3]; strain ENT CLOACAE 30063) [µg/mL]	MIC ([3]; strain ENT CLOACAE 44095) [µg/mL]	MIC (various pathogens; ACBA 1010 (CI)) [µg/mL]	MIC (various pathogens; [10]) [µg/mL]	MIC (various pathogens; [11]) [µg/mL]	MIC (various pathogens; [12]) [µg/mL]	MIC (various pathogens; [13]) [µg/mL]	MIC (various pathogens; [14]) [µg/mL]	MIC (various pathogens; [15]) [µg/mL]	MIC (various pathogens; [16]) [µg/mL]	MIC (various pathogens; [17]) [µg/mL]	other results
NCC[C@H](O)C(=O)N[C@@H]1C[C@H](N)[C@@H](O[C@H]2O[C@H](CN)[C@@H](O)[C@H](O)[C@H]2O)[C@H](O)[C@H]1O[C@H]1O[C@H](CO)[C@@H](O)[C@H](N)[C@H]1O [Amikacin]	12.5 (≈ 21.3 µM)	> 50	50 (≈ 85.4 µM)	12.5 (≈ 21.3 µM)	> 50	3.12 (≈ 5.34 µM)	3.12 (≈ 5.34 µM)	> 50	0.78 (≈ 1.33 µM)	25 (≈ 42.7 µM)	25 (≈ 42.7 µM)										MIC ([1]; strain ACBA 1010, alone, read-out: MIC): 1.56 µg/mL (≈ 2.66 µM)
C[C@@H](O)[C@H]1C(=O)N2C(C(=O)O)=C(SCCN=CN)C[C@H]12 [Imipenem]	25 (≈ 83.5 µM)	> 50	> 50	> 50	> 50	> 50	> 50	> 50	> 50	> 50	> 50	25	0.0975	12.5	< 0.0975	< 0.0975	0.0975	0.0975	0.195	6.25	MIC [1]: 12.5 µg/mL (≈ 41.8 µM); MIC (various pathogens; ACBA ATCC 19606): 25 µg/mL; MIC (various pathogens; ACBA DR 43357): > 50 µg/mL; MIC (various pathogens; [18]): 12.5 µg/mL; MIC (various pathogens; KLPN CRE 15588): > 50 µg/mL; MIC (various pathogens; KLPN CRE 27025): > 50 µg/mL; MIC (various pathogens; PAE DM 4150): 3.12 µg/mL; MIC (various pathogens; PAE DM 23155): 0.78 µg/mL; MIC (various pathogens; PAE DM 23257): 0.78 µg/mL; MIC (various pathogens; PAE DM 23376): 1.56 µg/mL; MIC (various pathogens; PAE DR 4877): 1.56 µg/mL; MIC (various pathogens; PAE DR 5790): 6.25 µg/mL; MIC (various pathogens; PAE DU 14476): > 25 µg/mL
C[C@@H](O)[C@H]1C(=O)N2C(C(=O)O)=C(S[C@@H]3CN[C@H](C(=O)N(C)C)C3)[C@H](C)[C@H]12 [meropenem]												1.56	< 0.0975	> 50	< 0.0975	< 0.0975	< 0.0975	< 0.0975	< 0.0975	25	reduction in bacterial burden [4]: 2 log; MIC (various pathogens; [18]): 50 µg/mL; MIC (various pathogens; Escherichia coli, E. Coli CRE 11804): > 25 µg/mL; MIC (various pathogens; Escherichia coli, E. Coli CRE 17232, ⅙ MHB): < 0.195 µg/mL; MIC (various pathogens; Escherichia coli, E. Coli CRE 17528): 1.56 µg/mL; MIC (various pathogens; KLPN CRE 7955): > 25 µg/mL; MIC (various pathogens; KLPN CRE 16260): > 50 µg/mL; MIC (various pathogens; KLPN CRE 27025): > 50 µg/mL; MIC (various pathogens; KLPN CRE 55301): 0.39 µg/mL; MIC (various pathogens; PAE DM 4150): 1.56 µg/mL; MIC (various pathogens; PAE DM 23155): 0.195 µg/mL; MIC (various pathogens; PAE DM 23257): 0.78 µg/mL; MIC (various pathogens; PAE DM 23376): 0.39 µg/mL; MIC (various pathogens; PAE DR 4877): 1.56 µg/mL; MIC (various pathogens; PAE DR 5790): 6.25 µg/mL; MIC (various pathogens; PAE DU 14476): > 25 µg/mL
Polymyxin B																					MIC (antibiotic alone) ([5]; strain EC 17232): 0.195; MIC (antibiotic alone) ([5]; strain EC 17528): 0.78; MIC (antibiotic alone) ([5]; strain EC 19963): 1.56; MIC (antibiotic alone) ([6]; strain PAE 4877): 1.56; MIC (antibiotic alone) ([6]; strain PAE 5790): 1.56; MIC (antibiotic alone) ([6]; strain PAE 14476): 1.56
